# US10953209B2, “Treating tumors using TTFields combined with a PARP inhibitor” (Board of Regents of the University of Texas System, priority 2018, dated 2021)
# Experiments:
# Assay type in all cases: cell-based, Human
# [1] = system: A549 NSCLC cell line; assay: Clonogenic survival, TTFields + Olaparib combination (Highest Single Agent CI); conditions: for CI TTFields + Olap 12.5 μM: Olaparib 12.5 μM; for CI TTFields + Olap 12.5 μM / CI TTFields + Olap 25 μM / CI TTFields + Olap 50 μM: CI>1 = synergistic; for CI TTFields + Olap 25 μM: Olaparib 25 μM; for CI TTFields + Olap 50 μM: Olaparib 50 μM
# Protocol: (§1) Experiments similar to those discussed above in connection with Table 2 and FIG. 6 were also conducted, but with exposure to IR replaced with exposure to three different concentrations (either 10, 20, and 40 μM; or 12.5, 25, and 50 μM, depending on the cell line) of the PARP inhibitor Olaparib. More specifically, Olaparib at each of the different concentrations was added to cells and the cells were then exposed to TTFields for 30 or 60 h (or not exposed to TTFields for the control) and immediately plated for survival. Baseline growth curves for exposing the various NSCLC cell lines to different concentrations of Olaparib without TTFields are depicted in FIG. 7. Clonogenic assays are depicted in FIG. 8 for the different combinations of drug concentration and TTFields exposure time in Table 3.
# (§2) The inventors considered the combined effect of TTFields and Olaparib to be synergistic if the combination index (CI) was >1 and the P-value was <0.05 for a given time point and a given cell line.
# (§3) Human NSCLC cell lines (H157, H4006, A549, H1299 and H1650) were purchased from American Tissue Culture Collection. All these cell lines were grown in RPMI medium supplemented with 10% (v/v) fetal bovine serum (Atlanta Biologicals, Flowery Branch, Ga., USA) and penicillin/[…] (final concentration 50 μg/ml; Sigma-Aldrich, St. Louis, Mo., U29SA). All cells were grown at 37° C. in a humidified incubator constantly supplied with 5% CO2.
# (§4) The inventors used the inovitro system (NovoCure Ltd, Haifa, Israel) to generate TTFields that use two pairs of electrodes printed perpendicularly on the outer walls of a Petri dish composed of high dielectric constant ceramic (lead magnesium niobate-lead titanite (PMN-PT)). The transducer arrays were connected to a sinusoidal waveform generator that generate low-intensity electric fields at the desired frequencies in the medium as summarized in Table 1 above. The orientation of the TTFields was switched 90° every 1 s, thus covering the majority of the orientation axis of cell divisions, as previously described by Kirson et al. Plate temperature was maintained at 37° C. by placing the plates in a refrigerated incubator where the temperature was maintained at 19° C. to dissipate the heat generated by the inovitro system. The temperature was measured by 2 thermistors (Omega Engineering, Stamford, Conn., USA) attached to the ceramic walls. All cell suspensions were grown on a cover slip inside the inovitro dish (NovoCure Ltd) and treated with TTFields for the times indicated in the figure legends.
# (§5) To study the effect of radiation sensitivity on NSCLC cells, exponentially growing cells were treated with IR using a Mark II Cs irradiator (J L Shepherd and Associates) at a dose rate of 3.47 Gy/min, followed by immediate application of TTFields for 24, 48 and 72 h. Cells were then re-seeded into 60 mm dishes and incubated for up to 2 weeks. Colonies containing 50 or more cells were considered viable. The data are presented as the mean±S.E.M. of three independent experiments. The radiosensitization effect of TTFields was evaluated according to The Highest Single Agent approach by calculating the CI as given below. CI=SFIR×SFTTFields)/SFIR+TTFields Where SF=Survivalfraction
# (§6) The combination effect was considered enhanced/synergistic when CI>1, additive when CI=1. Statistical significance for a positive effect was determined by the P-value of a two-way ANOVA multiple comparison statistical test comparing the combination (TTFields plus IR) to the single agent showing the greatest cell killing for a given dose and time after IR.
# [2] = system: H1299 NSCLC cell line; assay: as above; conditions: for CI TTFields + Olap 10 μM: Olaparib 10 μM; for CI TTFields + Olap 10 μM / CI TTFields + Olap 20 μM / CI TTFields + Olap 40 μM: CI>1 = synergistic; for CI TTFields + Olap 20 μM: Olaparib 20 μM; for CI TTFields + Olap 40 μM: Olaparib 40 μM
# Protocol: as §1, §2, §3, §4, §5, §6
# [3] = system: H157 NSCLC cell line; assay: as above; conditions: for CI TTFields + Olap 10 μM: Olaparib 10 μM; for CI TTFields + Olap 10 μM / CI TTFields + Olap 20 μM / CI TTFields + Olap 40 μM: CI>1 = synergistic; for CI TTFields + Olap 20 μM: Olaparib 20 μM; for CI TTFields + Olap 40 μM: Olaparib 40 μM
# Protocol: as §1, §2, §3, §4, §5, §6
# [4] = system: H4006 NSCLC cell line; assay: as above; conditions: for CI TTFields + Olap 12.5 μM: Olaparib 12.5 μM; for CI TTFields + Olap 12.5 μM / CI TTFields + Olap 25 μM / CI TTFields + Olap 50 μM: CI>1 = synergistic; for CI TTFields + Olap 25 μM: Olaparib 25 μM; for CI TTFields + Olap 50 μM: Olaparib 50 μM
# Protocol: as §1, §2, §3, §4, §5, §6
# [5] = system: H1299 cell line; assay: Clonogenic survival, triple combination of TTFields, IR and Olaparib (CI); conditions: Olaparib 20 μM; for CI TTFields + Olap + 1 Gy: 1 Gy IR; for CI TTFields + Olap + 2 Gy: 2 Gy IR; for CI TTFields + Olap: no IR
# Protocol: (§7) Experiments similar to those discussed above in connection with Table 2 and FIG. 6 were also conducted for H1299 and H157 cell lines, both with and without the PARP inhibitor Olaparib. More specifically, Olaparib (at a concentration of 20 μM) was added to cells, the cells were immediately exposed to TTFields for 24, […], or 72 h, removed, irradiated (at different doses of radiation), and immediately plated for survival.
# (§8) The combination effect was evaluated using the Highest Single Agent approach and are listed in Table 4 and depicted in FIGS. 9A and 9B, which summarize the clonogenic assays for the different combinations of RT dosage and TTFields exposure time in the table, both with and without the Olaparib.
# as §2, §3, §4, §5
# (§9) For the Triple Combination of TTFields, IR, and Olaparib, CI was calculated using the following equations: CI(TTFields+olap)=(SFOlap×SFTTFields)/SFOlap+TTFields CI(TTFields+1Gy)=(SF1Gy×SFTTFields)/SF1Gy+TTFields CI(TTFields+2Gy)=(SF2Gy×SFTTFields)/SF2Gy+TTFields CI(TTFields+olap+1Gy)=(SF1Gy+Olap×SFTTFields)/SFOlap+TTFields+1Gy CI(TTFields+olap+2Gy)=(SF2Gy+Olap×SFTTFields)/SFOlap+TTFields+2Gy Where SF=Survival fraction
# [6] = system: H157 cell line; assay: as above; conditions: Olaparib 20 μM; for CI TTFields + Olap + 1 Gy: 1 Gy IR; for CI TTFields + Olap + 2 Gy: 2 Gy IR; for CI TTFields + Olap: no IR
# Protocol: as §7, §8, §2, §3, §4, §5, §9
# [7] = system: H1299 cell line; assay: as above; conditions: TTFields 48 h, Olaparib 20 μM
# [8] = all tested concentrations, synergistic if CI >1 and P <0.05
# [9] = synergistic if CI >1 and P <0.05
structure (smiles),measurement,setting,value
O=C(c1cc(Cc2n[nH]c(=O)c3ccccc23)ccc1F)N1CCN(C(=O)C2CC2)CC1 [Olaparib],CI TTFields + Olap 12.5 μM,[1]; TTFields 30 h,1.12
same,CI TTFields + Olap 25 μM,[1]; TTFields 30 h,1.46
same,CI TTFields + Olap 50 μM,[1]; TTFields 30 h,1.32
same,CI TTFields + Olap 12.5 μM,[1]; TTFields 60 h,1.39
same,CI TTFields + Olap 25 μM,[1]; TTFields 60 h,1.716
same,CI TTFields + Olap 50 μM,[1]; TTFields 60 h,1.53
same,combined effect of TTFields and Olaparib on cell death,[1]; [8],synergistic
same,CI TTFields + Olap 10 μM,[2]; TTFields 30 h,1.12
same,CI TTFields + Olap 20 μM,[2]; TTFields 30 h,1.42
same,CI TTFields + Olap 40 μM,[2]; TTFields 30 h,1.9
same,CI TTFields + Olap 10 μM,[2]; TTFields 60 h,1.4
same,CI TTFields + Olap 20 μM,[2]; TTFields 60 h,1.5
same,CI TTFields + Olap 40 μM,[2]; TTFields 60 h,3.7
same,combined effect of TTFields and Olaparib on cell death,[2]; [8],synergistic
same,CI TTFields + Olap 10 μM,[3]; TTFields 30 h,1.3
same,CI TTFields + Olap 20 μM,[3]; TTFields 30 h,1.44
same,CI TTFields + Olap 40 μM,[3]; TTFields 30 h,1.78
same,CI TTFields + Olap 10 μM,[3]; TTFields 60 h,1.63
same,CI TTFields + Olap 20 μM,[3]; TTFields 60 h,1.43
same,CI TTFields + Olap 40 μM,[3]; TTFields 60 h,1.68
same,combined effect of TTFields and Olaparib on cell death,[3]; [8],synergistic
same,CI TTFields + Olap 12.5 μM,[4]; TTFields 30 h,1.17
same,CI TTFields + Olap 25 μM,[4]; TTFields 30 h,1.17
same,CI TTFields + Olap 50 μM,[4]; TTFields 30 h,1.32
same,CI TTFields + Olap 12.5 μM,[4]; TTFields 60 h,1.13
same,CI TTFields + Olap 25 μM,[4]; TTFields 60 h,1.34
same,CI TTFields + Olap 50 μM,[4]; TTFields 60 h,1.96
same,combined effect of TTFields and Olaparib on cell death,[4]; [8],synergistic
same,"combined effect of TTFields, IR, and Olaparib on cell death",[5]; [9],synergistic
same,CI TTFields + Olap + 1 Gy,[5]; TTFields 24 h,1.64
same,CI TTFields + Olap + 2 Gy,[5]; TTFields 24 h,1.96
same,CI TTFields + Olap,[5]; TTFields 24 h,1.03
same,CI TTFields + Olap + 1 Gy,[5]; TTFields 72 h,1.89
same,CI TTFields + Olap + 2 Gy,[5]; TTFields 72 h,3.08
same,CI TTFields + Olap,[5]; TTFields 72 h,1.06
same,"combined effect of TTFields, IR, and Olaparib on cell death",[6]; [9],synergistic
same,CI TTFields + Olap + 1 Gy,[6]; TTFields 24 h,2.25
same,CI TTFields + Olap + 2 Gy,[6]; TTFields 24 h,2.36
same,CI TTFields + Olap,[6]; TTFields 24 h,0.97
same,CI TTFields + Olap + 1 Gy,[6]; TTFields 48 h,2.12
same,CI TTFields + Olap + 2 Gy,[6]; TTFields 48 h,2.07
same,CI TTFields + Olap,[6]; TTFields 48 h,1.02
same,CI TTFields + Olap + 1 Gy,[6]; TTFields 72 h,1.66
same,CI TTFields + Olap + 2 Gy,[6]; TTFields 72 h,2.57
same,CI TTFields + Olap,[6]; TTFields 72 h,1.49
same,CI TTFields + Olap + 1 Gy,[7]; 1 Gy IR,1.70
same,CI TTFields + Olap + 2 Gy,[7]; 2 Gy IR,2.20
same,CI TTFields + Olap,[7]; no IR,1.02
